Literature values as cited in patent US10463673B2, “Nanoparticulate meloxicam formulations” (Recro Pharma, Inc., priority 2003, dated 2019).
Like-named read-outs stand apart in the source and are kept apart here.

How the values were obtained:
[1] = tested on: COX-2
[2] = oral; for Cmax, mean (% CV) / tmax, mean (% CV): 15 mg capsules
[3] = Single dose, hepatic insufficiency (Fasted)
[4] = Single dose, renal failure (Fasted)
[5] = Steady state, elderly females (Fed)
[6] = Steady state, elderly males (Fed)

Cc1cnc(NC(=O)C2=C(O)c3ccccc3S(=O)(=O)N2C)s1 [Meloxicam, 4-hydroxy-2-methyl-N-(5-methyl-2-thiazolyl)-2-H-1,2-benzothiazine-3-carboxamide 1,1-dioxide]
solubility in methanol (methanol): very slightly soluble | solubility in strong acids and bases (strong acids and bases, compared with water): higher solubility | solubility in water (water): practically insoluble | COX-2/COX-1 inhibition ratio [1]: 0.09 | Cmax, mean (% CV) [2, 3]: 0.84 (29) μg/mL | tmax, mean (% CV) [2, 3]: 10 (87) h | Cmax, mean (% CV) [2, 4]: 0.59 (36) μg/mL | tmax, mean (% CV) [2, 4]: 4 (65) h | Cmax, mean (% CV) [2, 5]: 3.2 (24) μg/mL | tmax, mean (% CV) [2, 5]: 6 (27) h | Cmax, mean (% CV) [2, 6]: 2.3 (59) μg/mL | tmax, mean (% CV) [2, 6]: 5 (12) h | time of second meloxicam concentration peak post-dose ([2]; fasted steady state conditions): twelve to fourteen
